From patent publication US7632855B2, “Pyrazole compounds as HSP90 inhibitors for the treatment of cancer” (Vernalis (Cambridge) Limited, priority 2003, dated 2009)

molecular target: T1, human full-length HSP90 (Homo sapiens, UniProt P08238); test: Fluorescence Polarisation Assay (competitive displacement of probe RBT0045864-FAM from HSP90); format: binding; conditions: E. coli expressed human full-length Hsp90 200 nM; probe RBT0045864-FAM 80 nM; read-out: Hsp90 FP IC50
T1 construct: E. coli expressed human full-length HSP90 protein, purified >95%; made in house; host or cells: E. coli
Text: Fluorescence Polarization Assay
Fluorescence polarization {also known as fluorescence anisotropy} measures the rotation of a fluorescing species in solution, where the larger molecule the more polarized the fluorescence emission. When the fluorophore is excited with polarized light, the emitted light is also polarized. The molecular size is proportional to the polarization of the fluorescence emission. The fluoroscein-labelled probe—RBT0045864-FAM—binds to HSP90 {full-length human, full-length yeast or N-terminal domain HSP90 } and the anisotropy {rotation of the probe-protein complex} is measured.
Compound is added to the assay plate, left to equilibrate and the anisotropy measured again. Any change in anisotropy is due to competitive binding of compound to HSP90, thereby releasing probe.
Chemicals are of the highest purity commercially available and all aqueous solutions are made up in AR water. • 1) Costar 96-well black assay plate #3915 • 2) Assay buffer of (a) 100 mM Tris pH7.4; (b) 20 mM KCl; (c) 6mM MgCl2. Stored at room temperature. • 3) BSA (bovine serum albumen) 10 mg/ml (New England Biolabs # B9001S) • 4) 20 mM RBT0045864 (pyrazole) in 100% DMSO stock concentration. Stored in the dark at RT. Made in-house, Kd^˜[…], depending on the protein used. Working concentration is 200 nM diluted in AR water and stored at 4° C. Final concentration in assay 80 nM. • 5) E. coli expressed human full-length HSP90 protein, purified >95% (see, e.g., Panaretou et al., EMBO J., Vol. 17, pp. 4829-4836, 1998) and stored in 50 μL aliquots at −80° C. Protocol • 1) Add 100 μl 1× buffer to wells 11A and 12A (=FP BLNK) • 2) Prepare assay mix—all reagents are kept on ice with a lid on the bucket as the probe is light-sensitive.
• 3) Aliquot 100 μl assay mix to all other wells • 4) Seal plate and leave in dark at room temp for 20 minutes to equilibrate Compound Dilution Plate—1×3 Dilution Series • 1) In a clear 96-well v-bottom plate—{# VWR 007/008/257} add 10 μl 100% DMSO to wells B1 to H11 • 2) To wells A1 to A11 add 17.5 μl 100% DMSO • 3) Add 2.5 μl cpd to A1. This gives 2.5 mM {50×} stock cpd—assuming cpds 20 mM. • 4) Repeat for wells A2 to A10. Control in columns 11 and 12. • 5) Transfer 5 μl from row A to row B—not column 12. Mix well. • 6) Transfer 5 μl from row B to row C. […] In column 11 {provides standard curve} only add compound B11-H11. Add 2 μl of 100 mM standard cpd to wells B12-H12 {is positive control}
The Z′ factor is calculated from zero controls and positive wells. It typically gives a value of 0.7-0.9.

T1 sequence (P08238 whole entry): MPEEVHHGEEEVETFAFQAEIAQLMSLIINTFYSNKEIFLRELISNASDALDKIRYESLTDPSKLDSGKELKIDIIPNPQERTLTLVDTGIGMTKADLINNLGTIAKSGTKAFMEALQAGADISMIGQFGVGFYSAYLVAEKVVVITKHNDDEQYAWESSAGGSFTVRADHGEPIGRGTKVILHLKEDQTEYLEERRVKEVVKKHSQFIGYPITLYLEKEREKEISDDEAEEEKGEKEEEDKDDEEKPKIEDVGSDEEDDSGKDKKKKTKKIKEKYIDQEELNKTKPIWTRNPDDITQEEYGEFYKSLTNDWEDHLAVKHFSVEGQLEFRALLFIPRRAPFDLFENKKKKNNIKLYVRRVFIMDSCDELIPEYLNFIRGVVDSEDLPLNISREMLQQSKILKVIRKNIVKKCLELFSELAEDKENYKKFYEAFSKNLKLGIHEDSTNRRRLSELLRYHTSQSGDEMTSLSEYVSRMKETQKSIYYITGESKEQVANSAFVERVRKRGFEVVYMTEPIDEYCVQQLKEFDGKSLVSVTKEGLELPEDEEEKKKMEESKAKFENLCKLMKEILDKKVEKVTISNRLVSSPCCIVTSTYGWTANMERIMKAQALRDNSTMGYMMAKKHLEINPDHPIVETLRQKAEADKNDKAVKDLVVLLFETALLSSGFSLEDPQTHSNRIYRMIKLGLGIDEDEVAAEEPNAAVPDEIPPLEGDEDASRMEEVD

IC50, < 10 µM:
COC(=O)C(C)NC(=O)c1[nH]nc(-c2cc(Cl)c(O)cc2O)c1-c1ccc(OC)cc1 (stereo not shown) [Example 3]
COc1ccc(-c2c(-c3cc(Cl)c(O)cc3O)n[nH]c2C(=O)NC(C)C(=O)O)cc1 (stereo not shown) [Example 4]
COC(=O)CNC(=O)c1[nH]nc(-c2cc(Cl)c(O)cc2O)c1-c1ccc(OC)cc1 [Example 6]
COC(=O)[C@@H](C)NC(=O)c1[nH]nc(-c2cc(Cl)c(O)cc2O)c1-c1ccc(OC)cc1 [Example 7]
COC(=O)[C@H](C)NC(=O)c1[nH]nc(-c2cc(Cl)c(O)cc2O)c1-c1ccc(OC)cc1 [Example 8]
COc1ccc(-c2c(-c3cc(Cl)c(O)cc3O)n[nH]c2C(=O)N[C@H](C)C(N)=O)cc1 [Example 9]
COc1ccc(-c2c(-c3cc(Cl)c(O)cc3O)n[nH]c2C(=O)N[C@@H](C)C(N)=O)cc1 [Example 10]
COc1ccc(-c2c(-c3cc(Cl)c(O)cc3O)n[nH]c2C(=O)N[C@H](C)C(=O)N2CCN(C)CC2)cc1 [Example 12]
CNC(=O)[C@@H](C)NC(=O)c1[nH]nc(-c2cc(Cl)c(O)cc2O)c1-c1ccc(OC)cc1 [Example 13]
COc1ccc(-c2c(-c3cc(Cl)c(O)cc3O)n[nH]c2C(=O)N[C@H](C)C(=O)NC(C)C)cc1 [Example 14]
COc1ccc(-c2c(-c3cc(Cl)c(O)cc3O)n[nH]c2C(=O)N[C@H](C)C(=O)NCCN(C)C)cc1 [Example 15]
COc1ccc(-c2c(-c3cc(Cl)c(O)cc3O)n[nH]c2C(=O)N[C@H](C)C(=O)NCCN2CCOCC2)cc1 [Example 16]
CCNC(=O)[C@@H](C)NC(=O)c1[nH]nc(-c2cc(Cl)c(O)cc2O)c1-c1ccc(OC)cc1 [Example 18]
